{"source": "patent US7323452B2", "about": "“Method for the accelerated in vivo removal of ethanol” (Wardan, L.L.C., priority 2000, dated 2008)", "type_in_all_cases": "biochemical", "key": {"ADH": {"target": "ADH (Equus caballus, UniProt P00327)", "sequence (P00327 whole entry)": "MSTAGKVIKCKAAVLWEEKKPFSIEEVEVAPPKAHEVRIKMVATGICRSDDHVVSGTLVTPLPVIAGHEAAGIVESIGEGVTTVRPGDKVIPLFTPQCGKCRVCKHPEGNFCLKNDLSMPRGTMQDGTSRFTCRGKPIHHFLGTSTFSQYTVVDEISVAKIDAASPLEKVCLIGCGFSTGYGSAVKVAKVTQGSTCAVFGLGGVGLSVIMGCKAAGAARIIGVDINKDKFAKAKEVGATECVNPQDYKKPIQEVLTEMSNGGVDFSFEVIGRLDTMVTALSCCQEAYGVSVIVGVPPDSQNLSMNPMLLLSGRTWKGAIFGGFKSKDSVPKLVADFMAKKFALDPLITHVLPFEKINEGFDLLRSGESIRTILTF", "experiment": "Rate of ADH catalyzed NAD+ oxidation of ethanol (rise in absorption at 340 nm) with additives", "conditions": "pH 9.25", "protocol": "In Examples 51-53, the rate of ADH catalyzed NAD^+ oxidation of alcohol is followed by the rise in absorption at 340 nm, with and without additives. When a solvent (methanol) is needed to dissolve the additive, an equal amount is added to the “blank” or “control”. The results, as summarized in Table 3, indicate the effectiveness of Daidezin, Aloin and Methoxatin as accelerators.\nTo a 0.01M solution of ethanol (10 μL) in 1M pH 9.25 phosphate buffer, in a multi-well plate, is added a solution of aloin, of the indicated concentration (10 μL) and 10 μL of a solution containing 0.2 U/mL ADH and diluted to 180 μL with buffer. To the mixture is added 20 μL of a 0.01M solution of NAD^+ in deionized distilled water, and the absorbance at 340 nm is followed with time.\nThe procedure in Example 51 is repeated using Daidezin.\nThe procedure in Example 51 is repeated using Methoxatin."}, "[1]": {"experiment": "Kinetics of transition metal oxidation of NADH (decrease in absorption at 340 nm)", "description": "The rate of oxidation of NADH is followed over time as the decrease in the absorption at 340 nm.\nThe procedure in Example 43 is repeated replacing vanadyl sulfate with potassium ferricyanide.\nThe procedure in Example 43 is repeated replacing vanadyl sulfate with sodium molybdate.\nThe procedure in Example 43 is repeated replacing vanadyl sulfate with sodium phosphotungstate."}, "[2]": {"experiment": "DNP test for acetaldehyde formation: ethanol oxidation with the enzyme solution omitted", "conditions": "no additive, stood 15 minutes", "protocol": "(§1) The reagent quenches any oxidative reaction of alcohol as well as detects the formation of acetaldehyde. An orange, crystalline precipitate indicates a positive reaction.\n(§2) The DNP reagent is a fresh solution of 0.5 gm. of 2.4-dinitrophenylhydrazine in 20 mL methanol and 5 mL concentrated sulfuric acid, diluted to 50 mL of deionized distilled water.\nThe procedure in Example 1 was repeated with the omission of the enzyme solution.\nThe procedure in Example 3 was repeated with the omission of the enzyme solution.\nThe procedure in Example 4 was repeated with the omission of NAD^+.\nThe procedure in Example 2 is repeated using a pH 7.25 1M phosphate buffer.\nThe procedure in Example 4 is repeated using a pH 7.25 1M phosphate buffer.\nThe procedure in Example 5 is repeated using a pH 7.25 1M phosphate buffer."}, "[3]": {"target": "T1, Alcohol Dehydrogenase (from Equine liver) (Equus caballus, UniProt P00327)", "T1 construct": "Alcohol Dehydrogenase (from Equine liver); from tissue; host or cells: equine liver", "T1 sequence (P00327 whole entry)": "as above", "experiment": "DNP test for acetaldehyde formation: ethanol oxidation by NAD+ with Alcohol Dehydrogenase, with or without additive", "protocol": "as §1, §2\nTo a 0.05M solution of ethanol in a 1M (pH 9.25) phosphate buffer (10 μL) are added 10 μL each of a solution 0.08M in NAD^+ (in deionized distilled water) and 4 U/mL Alcohol Dehydrogenase (from Equine liver) in the above buffer, and diluted to 100 μL with buffer. At the end of a specified time, it was quenched with the DNP reagent.\nThe procedure in Example 1 was repeated with the addition of 10 μL of a 0.01M vanadyl sulfate solution in deionized distilled water.\nThe procedure-in Example 2 is repeated using a pH 7.25 1M phosphate buffer.\nThe procedure in Example 3 is repeated using a pH 7.25 1M phosphate buffer."}}, "note": "Marks after values point to notes of the source that are not given here.", "data": [{"compound": "O=C1c2c(O)cccc2C([C@@H]2O[C@H](CO)[C@@H](O)[C@H](O)[C@H]2O)c2cc(CO)cc(O)c21", "note": "(stereo partly shown) [Aloin]", "values": [{"measurement": "Relative rates of Ethanol Oxidation in presence of Additives (Control = 1)", "setting": "ADH; additive .000005M", "result": 1.07}, {"measurement": "Relative rates of Ethanol Oxidation in presence of Additives (Control = 1)", "setting": "ADH; additive .00001M", "result": 1.19}]}, {"compound": "O=c1c(-c2ccc(O)cc2)coc2cc(O)ccc12", "note": "[Daidezin]", "values": [{"measurement": "Relative rates of Ethanol Oxidation in presence of Additives (Control = 1)", "setting": "ADH; additive .000005M", "result": 1.28}, {"measurement": "Relative rates of Ethanol Oxidation in presence of Additives (Control = 1)", "setting": "ADH; additive .00001M", "result": 1.38}]}, {"compound": "O=C(O)c1cc(C(=O)O)c2c(n1)C(=O)C(=O)c1cc(C(=O)O)[nH]c1-2", "note": "[Methoxatin, 4,5-Dihydro-4,5-dioxo-1H-pyrrolo [2,3-f] quinoline-2,7,9-tricarboxylic acid]", "values": [{"measurement": "Relative rates of Ethanol Oxidation in presence of Additives (Control = 1)", "setting": "ADH; additive .000005M", "result": 1.29}, {"measurement": "Relative rates of Ethanol Oxidation in presence of Additives (Control = 1)", "setting": "ADH; additive .00001M", "result": 1.59}]}, {"compound": "[Na+].[Na+].[O]=[Mo](=[O])([O-])[O-]", "note": "[Molybdate, sodium molybdate]", "values": [{"measurement": "Slope", "setting": "[1]; pH 7.25", "result": ".00000012 mol/L/min"}, {"measurement": "Slope (OD/Min)", "setting": "[1]; pH 7.25, absorption at 340 nm, * unexplained, text mentions an induction period", "result": ".0025* OD/Min"}, {"measurement": "Slope", "setting": "[1]; pH 9.25", "result": ".0000003 mol/L/min"}, {"measurement": "Slope (OD/Min)", "setting": "[1]; pH 9.25, absorption at 340 nm, * unexplained, text mentions an induction period", "result": ".0035* OD/Min"}]}, {"compound": "NC(=O)c1ccc[n+]([C@@H]2O[C@H](COP(=O)([O-])OP(=O)(O)OC[C@H]3O[C@@H](n4cnc5c(N)ncnc54)[C@H](O)[C@@H]3O)[C@@H](O)[C@H]2O)c1", "note": "[NAD^+, Nicotinamide Adenine Dinucleotide, reference compound]", "values": [{"measurement": "DNP reaction (acetaldehyde formation)", "setting": "[2]; pH 7.25, ethanol + NAD+", "result": "negative"}, {"measurement": "DNP reaction (acetaldehyde formation)", "setting": "[2]; pH 9.25, ethanol + NAD+", "result": "negative"}]}, {"compound": "O=S(=O)([O-])[O-].[O]=[V+2]", "note": "[vanadyl sulfate]", "values": [{"measurement": "DNP reaction (acetaldehyde formation)", "setting": "[3]; pH 7.25", "result": "positive"}, {"measurement": "DNP reaction (acetaldehyde formation)", "setting": "[3]; pH 9.25", "result": "positive"}, {"measurement": "Slope", "setting": "[1]; pH 7.25", "result": ".0000036 mol/L/min"}, {"measurement": "Slope (OD/Min)", "setting": "[1]; pH 7.25", "result": ".0079 OD/Min"}, {"measurement": "Slope", "setting": "[1]; pH 9.25", "result": ".000005 mol/L/min"}, {"measurement": "Slope (OD/Min)", "setting": "[1]; pH 9.25", "result": ".0112 OD/Min"}]}, {"compound": "ammonium molybdate", "values": [{"measurement": "DNP results of Examples 1-5 repeated with the additive in place of vanadyl sulfate", "setting": "[3]; pH 9.25", "result": "almost identical results"}]}, {"compound": "sodium phosphotungstate", "values": [{"measurement": "DNP results of Examples 25-30 repeated with the additive in place of vanadyl sulfate", "setting": "[3]; pH 7.25", "result": "almost identical results"}, {"measurement": "DNP results of Examples 1-5 repeated with the additive in place of vanadyl sulfate", "setting": "[3]; pH 9.25", "result": "almost identical results"}, {"measurement": "Slope", "setting": "[1]; pH 7.25", "result": 0, "unit": "mol/L/min"}, {"measurement": "Slope (OD/Min)", "setting": "[1]; pH 7.25", "result": 0, "unit": "OD/Min"}, {"measurement": "Slope", "setting": "[1]; pH 9.25", "result": ".0000006 mol/L/min"}, {"measurement": "Slope (OD/Min)", "setting": "[1]; pH 9.25", "result": ".007* OD/Min"}]}]}
